How the values were obtained:
Format in all cases: in vivo
Anopheles stephensi [1] = test: twelve well tissue culture plate deposit test, knockdown (B23); settings: 1 h, read-out: Anopheles stephensi 1 hour % KD
Experimental: (§1) The individual wells of a twelve (12) well tissue culture plates were treated with 100 μl of an ethanol solution containing a test compound at a defined concentration. Once the deposits were dry, five non-blood fed adult female Aedes aegypti or Anopheles stephensi (between two to five day old) were added to each well, and sustained with a 10% sucrose solution in a cotton wool plug. Assessment of the knockdown after 1 hour was carried out. Where multiple replicates of a treatment have been undertaken, the mean of those replicates is reported.

Aedes aegypti = test: as above; settings: 1 h, read-out: Aedes aegypti 1 hour % KD
Experimental: as §1

Anopheles gambiae Kisumu [2] = test: WHOPES tunnel test with live guinea pig baits, Cote d′Ivoire (B19); settings: Table B19; for Blood fed: number of mosquitoes
Experimental: (§2) The following tests are based on the “WHOPES tunnel tests” (described at http://apps.who.int/iris/bitstream/10665/80270/1/9789241505277_eng.pdf)
(§3) For examples B16-B20, the WHOPES tunnel test procedure was followed with live guniea pig baits wherein B16-B18 were conduced in Burkina Faso with Anopheles gambiae Kisumu, Anopheles coluzzii VK7 lab strain and Anopheles gambiae s.l. VK field strain, respectively; and B19-B20 were conducted in Cote d′Ivoire with Anopheles gambiae Kisumu and Anopheles gambiae Tiassale field strain, respectively.
(§4) The commercial standard Olyset nets used in certain examples are 2% w/w permethrin (approx. 1000 mg/m2, although not all of that is available on the surface at any one time, as a good proportion is in the polymer).
(§5) All tests were done under standardised laboratory controlled conditions (27° C.+2° C. under subdued light). The tunnel apparatus was a 60×30×30 cm glass case open at each end and the floor was lined with wet blue roll in order to maintain humidity. A 30×30×30 cm cage, covered in untreated netting, was placed at the release end. The test nets were cut to 25×25 cm squares and fitted into cardboard frames that allow a 20×20 cm area to be exposed. Nine holes, 1 cm in diameter, were made in the netting in the pattern specified in the WHOPES test. The frames were then fitted into the tunnel one third of the way down its length. A Hemotek device, filled with blood and kept constant at 37° C. to mimic a human host, was placed in the smaller area of the glass tunnel behind the test netting, and the end of the tunnel closed with a netting screen. A human sat at the Hemotek end of the tunnels for the duration of the test. At the start of the test, 100 female mosquitoes (non-blood fed, aged 5-8 days) were introduced into the cage. Mosquitoes are free to fly in the tunnel but have to make contact with the piece of netting and locate the holes in it before passing through to reach the bait.
(§6) After 7 hours the mosquitoes were counted in each section of the tunnel. The number of mosquitoes knocked down and blood fed were recorded. Blood-feeding inhibition was assessed by comparing the proportion of blood-fed females (alive or dead) in treated and control tests. Four tunnels were run simultaneously each day, with one control containing untreated netting included with all runs. Three replicates were carried out per treatment. In case of multiple tests, the mean value is reported.

Anopheles stephensi [3] = test: WHOPES tunnel test with Hemotek membrane feeding device (B11-B14)
Experimental: as §2
(§7) For examples B11-B15 the WHOPES tunnel test procedure was followed, except that live guniea pig baits were replaced with a Hemotek membrane feeding device, filled with blood and kept constant at 37° C. to mimic a human host.
For examples B11-B14, the tunnel test was conducted with Anopheles stephensi;
as §5, §6

[4] = test system: Anopheles coluzzii VK7 lab strain; test: WHOPES tunnel test with live guinea pig baits, Burkina Faso (B17); settings: Table B17; for Blood fed: number of mosquitoes
Experimental: as §2, §3, §4, §5, §6

Anopheles gambiae Kisumu [5] = test: WHOPES tunnel test with live guinea pig baits, Burkina Faso (B16); settings: Table B16; for Blood fed: number of mosquitoes
Experimental: as §2, §3, §4, §5, §6

[6] = test system: Anopheles gambiae Tiassale field strain; test: WHOPES tunnel test with live guinea pig baits, Cote d′Ivoire (B20); settings: Table B20; for Blood fed: number of mosquitoes
Experimental: as §2, §3, §4, §5, §6

[7] = test system: Anopheles gambiae, resistant strain AKRON; test: WHOPES tunnel test with Hemotek membrane feeding device (B15); settings: Table B15
Experimental: as §2, §7
For example B15, the tunnel test was conducted with Anopheles gambiae, resistant strain AKRON.
as §4
All tests were done under standardised laboratory controlled conditions (27° C.+2° C. under subdued light). The tunnel apparatus was a 60×30×30 cm glass case open at each end and the floor was lined with wet blue roll in order to maintain humidity. A 30×30×30 cm cage, covered in untreated netting, was placed at the release end. The test nets were cut to 25×25 cm squares and fitted into cardboard frames that allow a 20×20 cm area to be exposed. […]
After 7 hours the mosquitoes were counted in each section of the tunnel. The number of mosquitoes knocked down and blood fed were recorded. Blood-feeding inhibition was assessed by comparing the proportion of blood-fed females (alive or dead) in treated and control tests. […]

[8] = test system: Anopheles gambiae s.l. VK field strain; test: WHOPES tunnel test with live guinea pig baits, Burkina Faso (B18); settings: Table B18; for Blood fed: number of mosquitoes
Experimental: as §2, §3, §4, §5, §6

[9] = test system: non-blood fed adult female mosquitoes; test: Bottle assay based on the CDC bottle assay (B21, B22); settings: Table B21; rate not given
Experimental: Based on the “CDC bottle assay” (described at http://www.cdc.gov/malaria/resources/pdf/fsp/ir_manual/ir_cdc_bioassay_en.pdf) 1 ml of ethanol containing a test compound at a defined concentration was added to a 250 ml glass bottle and the bottles were placed on a rolling table to coat the inner surfaces as the solvent evaporated. Once dry, twenty five non-blood fed adult female mosquitoes of the appropriate species and strains (each three day old) were aspirated from the stock culture and gently blown into the exposure bottles. The lid of the bottle was replaced and the bottle placed upright out of direct sun light under standard culture conditions, nominally 28° C. and 60-80% relative humidity.
A stopwatch was started, and the assessment of the knock-down were made after 15 mins and 60 minutes. A mosquito was said to be knocked down if it was unable to stand, following the CDC definition. The bottles were replaced in an upright position when not being assessed.
After one hour the mosquitoes were carefully removed from the bottle with an aspirator and placed in a recovery cup. The mosquitoes were supplied with a 10% sucrose solution on a cotton wool bung, and stored under culture conditions. Assessments of the mortality were made after 24 hours and 48 hours (B21).
Each treatment was replicated a minimum of four times, with the mean knockdown or mortality recorded. In each study, a set of bottles was infested with a known insecticide susceptible strain of mosquitoes from the same genera as the resistant strains.

Anopheles stephensi [10] = test: six well tissue culture plate deposit test, knockdown and mortality (Examples B1-B10); settings: for 24 hr mort / 48 hr mort / KD: Table B4, alone or +Comp. (1.3); for KD: knockdown after 1 hour; for knockdown after 1 hour: Alone or Plus Compound (1.3)
Experimental: The individual wells of six (6) well tissue culture plates were treated with 250 μl of an ethanol solution containing a test compound at a defined concentration. Once the deposits were dry, ten non-blood fed adult female Anopheles stephensi (between two to five day old) were added to each well, and sustained with a 10% sucrose solution in a cotton wool plug. Assessment of the knockdown after 1 hour (Tables B1-B10), and mortality after 24 and 48 hours (Tables B1-B4) was carried out.
In case of multiple tests, the mean value is reported.

[11] = Table B12, Deltamethrin 5 mg/m2

## FC(F)(F)c1ccncc1-c1noc(-c2cccc(Cl)c2)n1 [Compound 1.1]
Anopheles stephensi [1]; Rate 0.2 PPM
  pest or weed control at 0.2 ppm: 40%
Anopheles stephensi [1]; Rate 2 PPM
  pest or weed control at 2 ppm: 100%
Anopheles stephensi [1]; Rate 20 PPM
  pest or weed control at 20 ppm: 100%
Anopheles stephensi [1]; Rate 200 PPM
  pest or weed control at 200 ppm: 100%
Aedes aegypti; Rate 0.2 PPM
  pest or weed control at 0.2 ppm: 100%
Aedes aegypti; Rate 2 PPM
  pest or weed control at 2 ppm: 100%
Aedes aegypti; Rate 20 PPM
  pest or weed control at 20 ppm: 100%
Aedes aegypti; Rate 200 PPM
  pest or weed control at 200 ppm: 100%

## NC(=O)c1cnccc1C(F)(F)F [Compound 1.3]
Anopheles gambiae Kisumu [2]; 50 mg/m2
  % Blood fed: 25.0%
  Blood fed: 70
Anopheles gambiae Kisumu [2]; 200 mg/m2
  % Blood fed: 23.1%
  Blood fed: 74
Anopheles stephensi [3]; Table B11, treated net, Rate 10 mg/m2
  % Blood fed: 3%
[4]; 50 mg/m2
  % Blood fed: 3.3%
  Blood fed: 10
[4]; 200 mg/m2
  % Blood fed: 1.5%
  Blood fed: 6
Anopheles gambiae Kisumu [5]; 50 mg/m2
  % Blood fed: 1.5%
  Blood fed: 5
Anopheles gambiae Kisumu [5]; 200 mg/m2
  % Blood fed: 0.3%
  Blood fed: 1
[6]; 50 mg/m2
  % Blood fed: 24.5%
  Blood fed: 66
[6]; 200 mg/m2
  % Blood fed: 3.3%
  Blood fed: 10
[7]; Compound (1.3) 25 mg/m2
  % Blood fed: 0.3%
[8]; 50 mg/m2
  % Blood fed: 1.3%
  Blood fed: 4
[8]; 200 mg/m2
  % Blood fed: 1.8%
  Blood fed: 6

## CC1(C)[C@H](C(=O)O[C@H](C#N)c2cccc(Oc3ccccc3)c2)[C@@H]1C=C(Br)Br [Deltamethrin]
Anopheles stephensi [3]; [11]
  % 1 hour KD: 0%
  % Blood fed: 0%

## N#CCNC(=O)c1cnccc1C(F)(F)F [Flonicamid]
[9]
  24 hour % mort: 0%
  48 hour % mort: 0%
  % 1 hour KD: 0%

## COC(=O)N(C(=O)N1CO[C@@]2(C(=O)OC)Cc3cc(Cl)ccc3C2=N1)c1ccc(OC(F)(F)F)cc1 [Indoxacarb]
Anopheles stephensi [10]; Rate 12.5 ppm
  24 hr mort: 0.0
  48 hr mort: 0.0
  KD: 0.0
Anopheles stephensi [10]; Rate 25 ppm
  24 hr mort: 0.0
  48 hr mort: 0.0
  KD: 0.0
Anopheles stephensi [10]; Rate 50 ppm
  24 hr mort: 0.0
  48 hr mort: 0.0
  KD: 0.0
Anopheles stephensi [10]; Rate 100 ppm
  24 hr mort: 0.0
  48 hr mort: 0.0
  KD: 0.0
Anopheles stephensi [10]; Table B7, Rate 25 ppm
  knockdown after 1 hour: 0
Anopheles stephensi [10]; Table B7, Rate 50 ppm
  knockdown after 1 hour: 0
Anopheles stephensi [10]; Table B7, Rate 100 ppm
  knockdown after 1 hour: 0
Anopheles stephensi [10]; Table B7, Rate 200 ppm
  knockdown after 1 hour: 0
Anopheles stephensi [3]; Table B14, Indoxacarb 20 mg/m2
  % 24 hour mortality: 7.6%
[7]; Indoxacarb 200 mg/m2
  % Blood fed: 4.4%

## CCN(CC)c1nc(C)cc(OP(=S)(OC)OC)n1 [pirimiphos-methyl]
Anopheles stephensi [10]; Table B10, Rate 0.0625 ppm
  knockdown after 1 hour: 0.0
Anopheles stephensi [10]; Table B10, Rate 0.125 ppm
  knockdown after 1 hour: 0.0

Reference: patent US20260191200A1, “COMPOUNDS AND COMPOSITIONS HAVING KNOCK-DOWN OR BLOOD FEED INHIBITION ACTIVITY AGAINST INSECT PESTS” (priority 2015, published 2026)
